Test results: article PMC10213937 (Frontiers in Pharmacology, 2023)
Like-named read-outs stand apart in the source and are kept apart here.

Legend:
[1] = Plasma concentrations of ATO, metabolites and VOR in patients (HPLC-MS/MS); type: in vivo, human; set-up: Concentration in human blood samples: unit not given here; details: for Concentration in human blood samples: n = 3; for Decrease of metabolite concentration in the VOR group: VOR + ATO vs ATO alone
Text: The experimental procedures were approved by the Ethics Committee of Shenzhen Hospital of Southern Medical University, and conducted in accordance with the Declaration of Helsinki (No. NYSZYYEC20180017). Subjects were selected from patients seen in the Department of Critical Care Medicine of Shenzhen Hospital of Southern Medical University, who were diagnosed with fungal infections complicated by cardiovascular and cerebrovascular diseases. Written informed consent was obtained from three patients aged 20-55 years. […] All procedures followed the ethical principles of the World Medical Association (WMA) Declaration of Helsinki and were approved by the Medical Ethics Committee of Shenzhen Hospital. […] Prelude […] The injection volume is 2 μL.

[2] = Stability in rat blood plasma (HPLC-MS/MS validation); details: n = 5
[3] = molecular target: ABCC2 (Homo sapiens, UniProt Q92887); experiment: ATO uptake/transport in cell transport models, ABCC2; type: cell-based; details: ATO as substrate, MK571 20 μM
ABCC2, sequence (Q92887 whole entry): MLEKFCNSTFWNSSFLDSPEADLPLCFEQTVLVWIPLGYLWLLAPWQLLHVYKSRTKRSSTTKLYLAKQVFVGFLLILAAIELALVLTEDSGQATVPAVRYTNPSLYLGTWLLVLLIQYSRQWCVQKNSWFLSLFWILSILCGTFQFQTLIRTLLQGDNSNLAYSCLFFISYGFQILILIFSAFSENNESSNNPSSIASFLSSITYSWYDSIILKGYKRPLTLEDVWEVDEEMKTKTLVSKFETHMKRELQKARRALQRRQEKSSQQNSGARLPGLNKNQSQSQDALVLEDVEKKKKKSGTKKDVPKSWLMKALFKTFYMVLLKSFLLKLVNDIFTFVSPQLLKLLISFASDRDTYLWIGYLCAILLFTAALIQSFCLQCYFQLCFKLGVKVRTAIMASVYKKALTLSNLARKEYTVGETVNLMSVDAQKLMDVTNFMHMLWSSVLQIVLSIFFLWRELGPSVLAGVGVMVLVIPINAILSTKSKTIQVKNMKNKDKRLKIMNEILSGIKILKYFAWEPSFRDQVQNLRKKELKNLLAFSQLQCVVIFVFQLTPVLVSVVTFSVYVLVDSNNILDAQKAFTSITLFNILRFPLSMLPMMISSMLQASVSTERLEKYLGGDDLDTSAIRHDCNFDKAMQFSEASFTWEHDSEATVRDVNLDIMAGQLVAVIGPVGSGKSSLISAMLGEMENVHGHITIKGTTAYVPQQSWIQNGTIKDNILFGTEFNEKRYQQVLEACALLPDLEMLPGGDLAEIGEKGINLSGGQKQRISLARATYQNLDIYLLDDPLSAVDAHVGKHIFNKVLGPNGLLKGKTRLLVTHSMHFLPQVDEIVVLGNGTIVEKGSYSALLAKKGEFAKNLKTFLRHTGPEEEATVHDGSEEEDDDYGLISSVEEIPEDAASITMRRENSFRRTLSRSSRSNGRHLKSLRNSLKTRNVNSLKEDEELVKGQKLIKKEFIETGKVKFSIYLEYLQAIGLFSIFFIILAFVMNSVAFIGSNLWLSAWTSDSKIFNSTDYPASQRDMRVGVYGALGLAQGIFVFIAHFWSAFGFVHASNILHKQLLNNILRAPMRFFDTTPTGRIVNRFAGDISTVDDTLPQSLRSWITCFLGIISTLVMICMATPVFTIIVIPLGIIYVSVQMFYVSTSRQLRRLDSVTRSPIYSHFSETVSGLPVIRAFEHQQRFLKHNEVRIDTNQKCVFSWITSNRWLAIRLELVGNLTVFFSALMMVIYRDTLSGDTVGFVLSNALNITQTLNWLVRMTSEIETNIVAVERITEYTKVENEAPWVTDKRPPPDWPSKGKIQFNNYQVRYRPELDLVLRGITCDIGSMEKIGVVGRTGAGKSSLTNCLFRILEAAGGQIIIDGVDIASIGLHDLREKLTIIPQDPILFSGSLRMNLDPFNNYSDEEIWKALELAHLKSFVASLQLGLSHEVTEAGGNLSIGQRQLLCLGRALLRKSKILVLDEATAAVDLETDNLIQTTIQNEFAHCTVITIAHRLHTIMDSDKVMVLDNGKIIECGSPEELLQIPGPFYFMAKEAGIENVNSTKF

[4] = system: CYP3A; experiment: Inhibition by VOR of ATO metabolism in rat liver microsomes; type: in vitro ADME; details: pH 7.4, probe atorvastatin (ATO), 2 μM
Description: The incubations were performed in duplicate.

[5] = system: CYP3A; experiment: in vitro; details: rat, microsomes
[6] = rat
[7] = Pharmacokinetic interaction study in rats, Study II: VOR with or without ATO; type: in vivo; details: male, Sprague-Dawley, rat, plasma, po, 20 mg/kg; for AUC(0-t): read-out: AUC0–24h
Description: Considering the clinical dosage of each drug and the dose equivalence between rats and human subjects, the corresponding quantity of drug powder was taken and resuspended with normal saline to prepare the drug-containing administration solution before treatment.
Treatment of the blood plasma: 40 µL of blood plasma was mixed with 10 µL of internal standard working solution (500 ng/ml) and acidified with 100 µL CH3COONa (0.1 mol/L). After the methyl tert-butyl (1 ml) was added, the mixture was vortexed for 5 min and centrifuged at 3000 r/min for 10 min at 4°C. The supernatant was removed into another 10 ml conical glass tube and dried in a rotary evaporator at 45°C. The residue was redissolved in 100 µL methanol and vortexed for 1 min, followed by HPLC-MS/MS analysis.
A Thermo Scientific™ TSQ Quantiva™ triple-stage quadrupole mass spectrometer (Thermo Fisher Scientific, MA, USA) equipped with a Thermo Scientific™ OptaMax™ NG ion source was used for the experiments. Prelude SPLC™ System samples, pretreatment technology (TurboFlow Eddy current purification), and a Thermo Scientific liquid chromatography system were also connected to the mass spectrometer. The HPLC conditions were as follows: column, Thermo Hypersil Gold C18 column (2.1 × 100 mm, 1.9 μm), column temperature maintained at 40 °C; TurboFlow column, Thermo Cyclone TM-P (0.5 × 50 mm) (ThermoFisher Scientific, MA, USA). The injection volume is 2 μL.
The analytes were quantified by selective reaction monitoring (SRM) that used heating electrospray ionization (H-ESI) in the positive ion mode. The main working parameters of the mass spectrometry were regulated as follows: ion spray voltage, 3 kV; capillary temperature, 350°C; sheath gas (N2) flow, 45 Arb; auxiliary gas (N2) flow, 10 Arb; and collision gas (Ar) flow, 2 mTorr. […] Thermo Scientific™ Pinpoint™ software version 1.3 (ThermoFisher Scientific, MA, USA) was used for data acquisition.
The blood samples (0.2 ml aliquots) were collected after taking a single dose of the test drug, which was the same as described in Study I. The blood samples were preserved on ice for further processing; after centrifuging at 4000 rpm for 5 min, the plasma samples were obtained and stored at −80°C until further analysis was performed. […] Non-compartmental pharmacokinetic analysis of plasma data was conducted using DAS (2.0 version, BioGuider Co., Shanghai, China) to calculate the parameters in the pharmacokinetic study.

[8] = ATO 20 mg alone, 0 h after taking ATO
[9] = ATO 20 mg alone, 1 h after taking ATO
[10] = ATO 20 mg alone, 2 h after taking ATO
[11] = ATO 20 mg alone, 12 h after taking ATO
[12] = ATO 20 mg alone, 24 h after taking ATO
[13] = VOR + ATO (VOR iv 6 mg/kg day 1, 4 mg/kg days 2–3), 0 h after taking ATO
[14] = first of four printed values (1 h by Table 1)
[15] = fourth of four printed values (24 h by Table 1)
[16] = second of four printed values (2 h by Table 1)
[17] = third of four printed values (12 h by Table 1)
[18] = VOR + ATO, 1 h after taking ATO
[19] = VOR + ATO, 2 h after taking ATO
[20] = VOR + ATO, 12 h after taking ATO
[21] = VOR + ATO, 24 h after taking ATO
[22] = 24 h at 25℃, nominal 0.05 ng/mL
[23] = three freeze-thaw cycle (−80℃/25℃), nominal 0.05 ng/mL
[24] = three freeze-thaw cycle (−80℃/25℃), nominal 5 ng/mL
[25] = three freeze-thaw cycle (−80℃/25℃), nominal 80 ng/mL
[26] = ATO 2 mg/kg + VOR 20 mg/kg oral

Structure (SMILES)	Concentration in human blood samples [1, 8]	Concentration in human blood samples [1, 9]	Concentration in human blood samples [1, 10]	Concentration in human blood samples [1, 11]	Concentration in human blood samples [1, 12]	Concentration in human blood samples [1, 13]	Decrease of metabolite concentration in the VOR group [1, 14] [%]	Decrease of metabolite concentration in the VOR group [1, 15] [%]	Decrease of metabolite concentration in the VOR group [1, 16] [%]	Decrease of metabolite concentration in the VOR group [1, 17] [%]	Concentration in human blood samples [1, 18]	Concentration in human blood samples [1, 19]	Concentration in human blood samples [1, 20]	Concentration in human blood samples [1, 21]	Stability, %RE [2, 22] [%]	Stability, measured concentration (mean ± SD) [2, 22] [ng/mL]	Stability, %RE ([2]; 24 h at 25℃, nominal 5 ng/mL) [%]	Stability, measured concentration (mean ± SD) ([2]; 24 h at 25℃, nominal 5 ng/mL) [ng/mL]	Stability, %RE ([2]; 24 h at 25℃, nominal 80 ng/mL) [%]	Stability, measured concentration (mean ± SD) ([2]; 24 h at 25℃, nominal 80 ng/mL) [ng/mL]	also measured
CC(C)c1c(C(=O)Nc2ccccc2O)c(-c2ccccc2)c(-c2ccc(F)cc2)n1CCC(O)CC(O)CC(=O)O (centres unmarked) [2-Hydroxy-ATO, 2-hydroxy-ATO]	3.401 ± 1.028	21.602 ± 1.929	15.196 ± 1.779	10.106 ± 2.969	3.950 ± 1.867	4.239 + 2.160	74.34	44.30	33.53	55.72	5.543 + 2.235	10.100 + 1.896	4.475 + 2.687	2.200 + 1.184	-0.35	0.047 ± 0.005	-8.25	4.538 ± 0.424	-6.25	76.114 ± 5.314	Stability, %RE [2, 23]: -8.35%; Stability, measured concentration (mean ± SD) [2, 23]: 0.044 ± 0.004 ng/mL; Stability, %RE [2, 24]: -1.35%; Stability, measured concentration (mean ± SD) [2, 24]: 4.554 ± 0.568 ng/mL; Stability, %RE [2, 25]: -10.28%; Stability, measured concentration (mean ± SD) [2, 25]: 72.580 ± 4.221 ng/mL
CC(C)c1c(C(=O)Nc2ccc(O)cc2)c(-c2ccccc2)c(-c2ccc(F)cc2)n1CC[C@@H](O)C[C@@H](O)CC(=O)O [4-Hydroxy-ATO, 4-hydroxy-ATO]	4.073 ± 2.168	15.510 ± 1.283	14.783 ± 3.501	6.863 ± 1.586	6.103 ± 2.640	5.047 + 0.882	47.45	41.62	55.78	45.85	8.150 + 1.219	6.537 + 0.304	3.717 + 0.807	3.563 + 1.830	-7.78	0.045 ± 0.007	-2.31	4.625 ± 0.337	-9.07	73.581 ± 6.587	Stability, %RE [2, 23]: -9.87%; Stability, measured concentration (mean ± SD) [2, 23]: 0.044 ± 0.005 ng/mL; Stability, %RE [2, 24]: -1.25%; Stability, measured concentration (mean ± SD) [2, 24]: 4.501 ± 0.411 ng/mL; Stability, %RE [2, 25]: -9.69%; Stability, measured concentration (mean ± SD) [2, 25]: 72.334 ± 7.338 ng/mL
CN(C)C(=O)CCSC(SCCC(=O)O)c1cccc(/C=C/c2ccc3ccc(Cl)cc3n2)c1 (centres unmarked) [MK571]																					Effect on the activity (efflux) of ABCC2 [3]: reversed the efflux
C[C@@H](c1ncncc1F)[C@](O)(Cn1cncn1)c1ccc(F)cc1F [VOR, Voriconazole]	0.007 + 0.012	0.000 + 0.000	0.007 + 0.012	0.000 + 0.000	0.007 + 0.012	2.870 + 0.325					2.673 + 0.465	2.563 + 0.122	2.780 + 0.317	2.820 + 0.540							IC50 at 20 min [4]: 45.9 µM; Effect on the activity (efflux) of ABCC2 [3]: no effect; IC50 [5]: 49.8 µM; Stability, measured concentration (mean ± SD) ([6]; 0.05 ng/mL): 0.045 ± 0.004 ng/mL; Stability, measured concentration (mean ± SD) ([6]; 5 ng/mL): 4.558 ± 0.318 ng/mL; Stability, measured concentration (mean ± SD) ([6]; 80 ng/mL): 75.238 ± 5.338 ng/mL; Stability, measured concentration (mean ± SD) ([6]; 24 h, 0.05 ng/mL): 0.048 ± 0.004 ng/mL; Stability, measured concentration (mean ± SD) ([6]; 24 h, 5 ng/mL): 4.962 ± 0.301 ng/mL; Stability, measured concentration (mean ± SD) ([6]; 24 h, 80 ng/mL): 79.264 ± 5.131 ng/mL; AUC(0-inf) [7, 26]: 3280 ± 835 ng·h/mL; Cmax [7, 26]: 826 ± 166 ng/mL; Tmax [7, 26]: 0.917 ± 0.204 h; half-life [7, 26]: 2.6 ± 0.419 h; AUC(0-t) [7, 26]: 3250 ± 862 ng·h/mL; AUC(0-inf) ([7]; NS + VOR 20 mg/kg oral): 3640 ± 798 ng·h/mL; Cmax ([7]; NS + VOR 20 mg/kg oral): 829 ± 246 ng/mL; Tmax ([7]; NS + VOR 20 mg/kg oral): 1.25 ± 0.612 h; half-life ([7]; NS + VOR 20 mg/kg oral): 2.58 ± 0.317 h; AUC(0-t) ([7]; NS + VOR 20 mg/kg oral): 3630 ± 802 ng·h/mL; MRT inf ([7]; NS + VOR 20 mg/kg oral, read-out: MRT0-∞): 3.53 ± 0.66 h
